Results: BindingDB's records for doi:10.1124/jpet.104.071282 (Neurocrine Biosciences, 2004)
Several values for one entry are separate records, joined by “and”; a condition that tells them apart may be missing. Identical values can stand only once.

Target: Gamma-aminobutyric acid receptor subunit alpha-1 (Rattus norvegicus, UniProt P62813)
Sequence (P62813 whole entry): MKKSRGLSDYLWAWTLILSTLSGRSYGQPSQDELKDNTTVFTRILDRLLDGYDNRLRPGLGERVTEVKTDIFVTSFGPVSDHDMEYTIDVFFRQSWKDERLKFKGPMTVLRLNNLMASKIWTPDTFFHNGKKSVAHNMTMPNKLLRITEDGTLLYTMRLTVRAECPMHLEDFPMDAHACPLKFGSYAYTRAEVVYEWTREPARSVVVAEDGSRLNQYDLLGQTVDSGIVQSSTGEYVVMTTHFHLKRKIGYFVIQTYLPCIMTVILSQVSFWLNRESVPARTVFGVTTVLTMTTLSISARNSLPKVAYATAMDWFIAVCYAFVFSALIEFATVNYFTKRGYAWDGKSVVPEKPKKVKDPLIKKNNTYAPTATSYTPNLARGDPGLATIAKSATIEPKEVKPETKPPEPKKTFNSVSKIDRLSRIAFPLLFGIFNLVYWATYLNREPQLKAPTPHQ

Cc1nnc2n1-c1ccc(Cl)cc1C(c1ccccc1Cl)=NC2 [Halcion]
Ki: 340 pM and 310 pM and 550 pM and 450 pM
